Test results reported in patent US9267129B2, “Compositions and methods for conferring herbicide resistance” (BEN-GURION UNIVERSITY OF THE NEGEV RESEARCH AND DEVELOPMENT …, priority 2011, dated 2016).

Molecular target: T1, PiAHAS mutant W605S (Lobosphaera incisa, UniProt I3VJH2, W604S)
T1 sequence (I3VJH2 with tags, fused parts or gaps W604S): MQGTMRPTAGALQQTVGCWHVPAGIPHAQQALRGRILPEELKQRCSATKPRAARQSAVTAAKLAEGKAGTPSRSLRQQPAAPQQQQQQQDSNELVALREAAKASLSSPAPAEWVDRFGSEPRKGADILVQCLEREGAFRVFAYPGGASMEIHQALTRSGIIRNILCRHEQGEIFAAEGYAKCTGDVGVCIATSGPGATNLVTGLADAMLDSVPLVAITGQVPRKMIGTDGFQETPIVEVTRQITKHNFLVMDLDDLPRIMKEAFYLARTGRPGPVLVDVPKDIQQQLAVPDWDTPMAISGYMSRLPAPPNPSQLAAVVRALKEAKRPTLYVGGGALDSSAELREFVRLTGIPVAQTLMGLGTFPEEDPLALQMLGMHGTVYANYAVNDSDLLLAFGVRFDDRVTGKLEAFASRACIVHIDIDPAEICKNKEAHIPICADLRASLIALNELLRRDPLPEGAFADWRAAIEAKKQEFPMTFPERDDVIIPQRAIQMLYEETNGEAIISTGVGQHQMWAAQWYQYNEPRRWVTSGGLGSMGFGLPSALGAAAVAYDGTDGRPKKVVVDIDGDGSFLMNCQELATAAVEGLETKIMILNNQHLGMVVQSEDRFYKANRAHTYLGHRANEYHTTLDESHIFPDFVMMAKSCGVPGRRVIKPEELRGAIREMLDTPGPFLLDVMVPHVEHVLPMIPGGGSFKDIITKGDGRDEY
Assay: PiAHAS in vitro enzyme assay, inhibition by SMM (mutant)
Format: biochemical, Parietochloris incisa
Details: even at high concentrations of 200 μM
Protocol: To overexpress the hexahistidine (6xHis)-tagged PiAHAS genes in E. coli strain JM109, plasmids pQE-WT and pQE-MUT were used. These plasmids were constructed by inserting the BamHI-SalI fragment containing the cloned PiAHAS wt and mutant genes into plasmid pQE30 (Qiagen, Hilden, Germany). These plasmids express PiAHAS fused at its N-terminus to the pQE30 6xHis leader. pQE-WT and pQE-MUT were transformed into E. coli for expression. […] The AHAS catalytic activity was determined as previously described (Bar-Ilan A et al. Binding and activation of thiamin diphosphate in acetohydroxyacid synthase. Biochemistry (N.Y.) 2001, 40, 11946-11954). […] Km for pyruvate and Ki for SMM were determined by varying the concentration of the factor in question. Protein concentration was determined by the dye-binding method of Bradford (Bradford MM. A rapid and sensitive method for the quantitation of microgram quantities of protein utilizing the principle of protein-dye binding. Anal. Biochem. 1976, 72, 248-254), with bovine serum albumin as standard. […]
The Ki was determined to be >30×106, 7 orders of magnitude higher than that of the wild type.

Structure (SMILES): COC(=O)c1ccccc1S(=O)(=O)NC(=O)Nc1nc(C)cc(C)n1 [SMM, sulfometuron methyl]
- inhibition of enzyme by SMM: strong resistance
